Several values for one entry are separate records, joined by “and”; a condition that tells them apart may be missing. Identical values can stand only once. Counter-ions that a name gives are not always drawn. Like-named read-outs stand apart in the source and are kept apart here.
Assays:
[1] = Solubility study in water (HPLC calibration); conditions: listed as 3′,5′-divalinyl ester hydrochloride of β-L-dC, hydrochloride
[2] = dival-L-dC 10 mg/kg oral
Description: The drug was quantitated in plasma and in urine using HPLC analysis.

[3] = Log P study, octanol-1 / phosphate buffer
Protocol: To 1 mL of this solution, 1 mL of octanol-1 (B) saturated with 0.02 M phosphate buffer solution (A) was added. The resultant mixture was shaken and centrifuged; three samples from each phase was collected and analyzed by HPLC, as shown in Table 10.
The solution was then saturated with octanol-1 (B). To 1 mL of this solution, 1 mL of octanol-1 (B) saturated with 0.02 M phosphate buffer solution (A) was added. The resultant mixture was shaken and centrifuged; three samples from each phase was collected and analyzed by HPLC, as shown in Table 11.

[4] = assay type: physicochemical; conditions: octanol-1 (B) / MilliQ water pH 6.5 (A′), Study 1 and Study 2, listed as L-dC-3′,5′-divalinyl ester hydrochloride
Protocol: (§1) To 1 mL of this solution, 1 mL of octanol-1 (B) saturated with MilliQ water (A′) was added.
as §1

[5] = In vitro stability of dival-L-dC in human plasma; assay type: in vitro ADME; conditions: 37° C.
Description: Two additional metabolites (β-L-2′-deoxycytidine-5′-valine ester and β-L-2′-deoxycytidine-valine ester) were also noted.

[6] = Stability study in buffer at pH 7.4, 7.20, 4.5 and 1.2; assay type: physicochemical; conditions: no other compounds detected up to 48 hours
[7] = assay type: in vivo, cynomolgus monkey (Macaca fascicularis)
Description: The drug was quantitated in plasma and urine with a liquid chromatography-mass spectrometry (LC-MS) technique.

[8] = Bioavailability of the prodrugs of L-dC; conditions: oral administration to monkeys
human plasma proteins = assay type: in vitro ADME; conditions: ex vivo, ultrafiltration
[9] = during the log P experiment in phosphate buffer

CC(C)[C@H](N)C(=O)OC[C@@H]1O[C@H](n2ccc(N)nc2=O)C[C@H]1OC(=O)[C@@H](N)C(C)C [3′5′-dival-L-dC, 3,5′-L-Valine ester of 2′-deoxy-β-L-cytidine hydrochloride]
Solubility (mol/L) [1]: more than 2.5 mol/L
L-dC as share of drug excreted in the urine [2]: ~89%
administered oral dose recovered in urine after 72 hours [2]: 31%
administered oral dose recovered in urine within 8 hours [2]: Approximately 26%
renal excretion of L-dU, share of the recovered dose [2]: approximately 10%
dival-L-dC in plasma at 15 minutes post-dose ([2]; detected in only one animal): 0.35 µM
conversion of the divaline ester detected in the aqueous phase [3, 9]: 50%
conversion of the divaline ester detected in the organic phase [3, 9]: 14%
log P (octanol/water) ([3]; octanol-1 / 0.02 M phosphate buffer pH 7.2): −0.86
P′ (B/A′) [4]: 1.80 × 10^−3 and 1.77 × 10^−3
in vitro half-life in human plasma [5]: approximately 39 min
stability in words [6]: fully stable
Cmax of val-L-dC (unchanged prodrug) ([7]; Oral (10 mg/kg dival-L-dC)): Not detected
L-dC as share of drug excreted in the urine ([7]; dival-L-dC 10 mg/kg IV): ~93%
administered dose excreted in urine within 2 hours ([7]; dival-L-dC 10 mg/kg IV): 58±3%
renal excretion of L-dU, share of total recovered dose ([7]; dival-L-dC 10 mg/kg IV): approximately 2.5%
renal excretion of β-L-2′-deoxycytidine-5′-valine ester, share of total recovered dose ([7]; dival-L-dC 10 mg/kg IV): ~3.7%
β-L-2′-deoxycytidine-5′-valine ester in plasma at 15 minutes ([7]; dival-L-dC 10 mg/kg IV): 3.23 µM
β-L-2′-deoxycytidine-5′-valine ester in plasma by 2 hours ([7]; dival-L-dC 10 mg/kg IV): 0.08 µM
dival-L-dC in plasma at 30 minutes ([7]; dival-L-dC 10 mg/kg IV, 1 of 3 animals): 0.36 µM
dival-L-dC in urine, share of the recovered dose ([7]; dival-L-dC 10 mg/kg IV, one of three animals at 2 hours): approximately 0.15%
L-dC as share of drug excreted in the urine ([7]; dival-L-dC 10 mg/kg oral): ~95%
L-dC as share of plasma drug levels at Cmax ([7]; dival-L-dC 10 mg/kg oral): > 99%
administered oral dose recovered in urine after 72 hours ([7]; dival-L-dC 10 mg/kg oral): 39±8%
administered oral dose recovered in urine within 4 hours ([7]; dival-L-dC 10 mg/kg oral): ~31±8%
renal excretion of L-dU, share of total recovered dose ([7]; dival-L-dC 10 mg/kg oral): approximately 2.5%
renal excretion of β-L-2′-deoxycytidine-5′-valine ester, share of total recovered dose ([7]; dival-L-dC 10 mg/kg oral): ~0.2%
L-dU concentration in plasma at 8 hours ([7]; dival-L-dC 10 mg/kg oral, one animal): 0.39 µM
share of absorbed ester converted to L-dC [8]: more than 99%
share of the oral dose absorbed [8]: approximately 73%
binding to human plasma proteins (human plasma proteins): 13.3%

— patent US8158606B2, “β-L-2′-deoxynucleosides for the treatment of resistant HBV strains and combination therapies” (priority 2002, dated 2012)
